Test results from patent publication US20220175768A1, “FGFR TYROSINE KINASE INHIBITORS FOR THE TREATMENT OF UROTHELIAL CARCINOMA” (Janssen Pharmaceutica NV, priority 2019, published 2022).
Where two headings read alike, the source gives them in different places.

[1] = 8 mg continuous, selected regimen 3 (n = 99)
[2] = 8 mg continuous, selected regimen 3 (n = 99), Table 14
[3] = 10 mg intermittent, regimen 1 (n = 33)

Description: Study treatment was administered on 28-day cycles. Prior to interim analysis 1, there were 2 treatment regimens. Patients were randomized 1:1 to 28-day cycles to the following 2 regimens until a regimen was selected for further study: Regimen 1 (10 mg once daily intermittent (7 days on/7 days); Regimen 2 (6 mg once daily continuous). Randomization was stratified according to performance status (0 to 1 vs. 2), hemoglobin value (<10 vs. ≥10 g per dl), FGFR alteration type (mutation vs. fusion), prior treatment status (chemotherapy-resistant vs. chemotherapy naïve), and disease distribution (presence or absence of visceral [liver, lung, bone] metastases). Starting dose selection was based on phase 1 efficacy and tolerability.
Thus, after interim analysis, this became a single-arm study. […] Treatment continued until disease progression or unacceptable adverse event(s) per investigator.
All objective responses required confirmation by an additional investigator assessment within 4 to 6 weeks of first assessment. Disease evaluations for regimen 3 were also performed by an independent radiographic review committee. […] Safety was evaluated based on clinical laboratory tests, physical exams, electrocardiograms, and ophthalmology examinations. Adverse events and abnormalities were assessed by investigator and graded per NCI CTCAE v.4.0
Prophylactic measures were taken to minimize risk of common adverse events related to FGFR inhibition. To reduce risk of hyperphosphatemia, a low-phosphate diet was recommended for all patients (600 to 800 mg of dietary phosphate intake per day). To reduce the risk of skin effects, the application of alcohol-free emollient moisturizing cream and avoidance of unnecessary exposure to sunlight, soap, perfumed products, and hot baths was recommended. Patients were asked to keep their fingers and toes clean and nails trimmed to reduce risk of nail effects.
Additional ophthalmology examinations were performed if clinically indicated.

COc1cc(OC)cc(N(CCNC(C)C)c2ccc3ncc(-c4cnn(C)c4)nc3c2)c1 [erdafitinib, N-(3,5-dimethoxy-phenyl)-N′-(1-methylethyl)-N-[3-(1-methyl-1H-pyrazol-4-yl)quinoxalin-6-yl]ethane-1,2-diamine]
Patients with Hyperphosphatemia, Grade ≥3 [1]: 2 (2) no. (%) | Patients with Hypomagnesemia, Any grade [1]: 10 (10) no. (%) | Patients with Hypomagnesemia, Grade 1 [1]: 9 (9) no. (%) | Patients with Hypomagnesemia, Grade 2 [1]: 1 (1) no. (%) | Patients with Hypomagnesemia, Grade ≥3 [1]: 0 no. (%) | Patients with Hyponatremia, Any grade [1]: 12 (12) no. (%) | Patients with Hyponatremia, Grade 1 [1]: 1 (1) no. (%) | Patients with Hyponatremia, Grade 2 [1]: 0 no. (%) | Patients with Hyponatremia, Grade ≥3 [1]: 11 (11) no. (%) | Patients with Insomnia, Any grade [1]: 7 (7) no. (%) | Patients with Insomnia, Grade 1 [1]: 4 (4) no. (%) | Patients with Insomnia, Grade 2 [1]: 3 (3) no. (%) | Patients with Insomnia, Grade ≥3 [1]: 0 no. (%) | Patients with Lacrimation increased, Any grade [1]: 11 (11) no. (%) | Patients with Lacrimation increased, Grade 1 [1]: 8 (8) no. (%) | Patients with Lacrimation increased, Grade 2 [1]: 3 (3) no. (%) | Patients with Lacrimation increased, Grade ≥3 [1]: 0 no. (%) | Patients with Nail dystrophy, Any grade [1]: 16 (16) no. (%) | Patients with Nail dystrophy, Grade 1 [1]: 5 (5) no. (%) | Patients with Nail dystrophy, Grade 2 [1]: 5 (5) no. (%) | Patients with Nail dystrophy, Grade ≥3 [1]: 6 (6) no. (%) | Patients with Nausea, Any grade [1]: 20 (20) no. (%) | Patients with Nausea, Grade 1 [1]: 13 (13) no. (%) | Patients with Nausea, Grade 2 [1]: 6 (6) no. (%) | Patients with Nausea, Grade ≥3 [1]: 1 (1) no. (%) | Patients with Onycholysis, Any grade [1]: 18 (18) no. (%) | Patients with Onycholysis, Grade 1 [1]: 6 (6) no. (%) | Patients with Onycholysis, Grade 2 [1]: 10 (10) no. (%) | Patients with Onycholysis, Grade ≥3 [1]: 2 (2) no. (%) | Patients with Onychomadesis, Any grade [1]: 7 (7) no. (%) | Patients with Onychomadesis, Grade 1 [1]: 2 (2) no. (%) | Patients with Onychomadesis, Grade 2 [1]: 5 (5) no. (%) | Patients with Onychomadesis, Grade ≥3 [1]: 0 no. (%) | Patients with Oropharyngeal pain, Any grade [1]: 10 (10) no. (%) | Patients with Oropharyngeal pain, Grade 1 [1]: 8 (8) no. (%) | Patients with Oropharyngeal pain, Grade 2 [1]: 1 (1) no. (%) | Patients with Oropharyngeal pain, Grade ≥3 [1]: 1 (1) no. (%) | Patients with Pain in extremity, Any grade [1]: 12 (12) no. (%) | Patients with Pain in extremity, Grade 1 [1]: 10 (10) no. (%) | Patients with Pain in extremity, Grade 2 [1]: 2 (2) no. (%) | Patients with Pain in extremity, Grade ≥3 [1]: 0 no. (%) | Patients with Paronychia, Any grade [1]: 17 (17) no. (%) | Patients with Paronychia, Grade 1 [1]: 3 (3) no. (%) | Patients with Paronychia, Grade 2 [1]: 11 (11) no. (%) | Patients with Paronychia, Grade ≥3 [1]: 3 (3) no. (%) | Patients with Peripheral edema, Any grade [1]: 9 (9) no. (%) | Patients with Peripheral edema, Grade 1 [1]: 5 (5) no. (%) | Patients with Peripheral edema, Grade 2 [1]: 3 (3) no. (%) | Patients with Peripheral edema, Grade ≥3 [1]: 1 (1) no. (%) | Patients with Pyrexia, Any grade [1]: 13 (13) no. (%) | Patients with Pyrexia, Grade 1 [1]: 8 (8) no. (%) | Patients with Pyrexia, Grade 2 [1]: 5 (5) no. (%) | Patients with Pyrexia, Grade ≥3 [1]: 0 no. (%) | Patients with Retinal detachment, Any grade [1]: 5 (5) no. (%) | Patients with Retinal detachment, Grade 1 [1]: 3 (3) no. (%) | Patients with Retinal detachment, Grade 2 [1]: 2 (2) no. (%) | Patients with Retinal detachment, Grade ≥3 [1]: 0 no. (%) | Patients with Stomatitis, Any grade [1]: 57 (58) no. (%) | Patients with Stomatitis, Grade 1 [1]: 21 (21) no. (%) | Patients with Stomatitis, Grade 2 [1]: 26 (26) no. (%) | Patients with Stomatitis, Grade ≥3 [1]: 10 (10) no. (%) | Patients with Urinary tract infection, Any grade [1]: 16 (16) no. (%) | Patients with Urinary tract infection, Grade 1 [1]: 0 no. (%) | Patients with Urinary tract infection, Grade 2 [1]: 11 (11) no. (%) | Patients with Urinary tract infection, Grade ≥3 [1]: 5 (5) no. (%) | Patients with Vision blurred, Any grade [1]: 17 (17) no. (%) | Patients with Vision blurred, Grade 1 [1]: 10 (10) no. (%) | Patients with Vision blurred, Grade 2 [1]: 7 (7) no. (%) | Patients with Vision blurred, Grade ≥3 [1]: 0 no. (%) | Patients with Vomiting, Any grade [1]: 13 (13) no. (%) | Patients with Vomiting, Grade 1 [1]: 10 (10) no. (%) | Patients with Vomiting, Grade 2 [1]: 1 (1) no. (%) | Patients with Vomiting, Grade ≥3 [1]: 2 (2) no. (%) | Patients with Weight decreased, Any grade [1]: 15 (15) no. (%) | Patients with Weight decreased, Grade 1 [1]: 7 (7) no. (%) | Patients with Weight decreased, Grade 2 [1]: 8 (8) no. (%) | Patients with Weight decreased, Grade ≥3 [1]: 0 no. (%) | Patients with Alopecia, Grade ≥3 [2]: 0 no. | Patients with Decreased appetite, Grade ≥3 [2]: 0 no. | Patients with Dry mouth, Grade ≥3 [2]: 0 no. | Patients with Dry skin, Grade ≥3 [2]: 0 no. | Patients with Urinary tract infection, Grade 1 [2]: 0 no. | Patients with Vision blurred, Grade ≥3 [2]: 0 no. | Patients with some type of eye disorder, regardless of relation to treatment (8 mg per day continuous): 63% | Patients with grade ≥3 treatment-emergent adverse events (8 mg per day continuous group uptitrated to 9 mg per day): 68% | Patients with Abdominal pain, Any grade [3]: 5 (15) no. (%) | Patients with Abdominal pain, Grade 1 [3]: 2 (6) no. (%) | Patients with Abdominal pain, Grade 2 [3]: 2 (6) no. (%) | Patients with Abdominal pain, Grade ≥3 [3]: 1 (3) no. (%) | Patients with Alanine aminotransferase increased, Any grade [3]: 1 (3) no. (%) | Patients with Alanine aminotransferase increased, Grade 1 [3]: 0 no. (%) | Patients with Alanine aminotransferase increased, Grade 2 [3]: 1 (3) no. (%) | Patients with Alanine aminotransferase increased, Grade ≥3 [3]: 0 no. (%) | Patients with Alopecia, Any grade [3]: 4 (12) no. (%) | Patients with Alopecia, Grade 1 [3]: 2 (6) no. (%) | Patients with Alopecia, Grade 2 [3]: 2 (6) no. (%) | Patients with Alopecia, Grade ≥3 [3]: 0 no. (%) | Patients with Anemia, Any grade [3]: 8 (24) no. (%) | Patients with Anemia, Grade 1 [3]: 1 (3) no. (%) | Patients with Anemia, Grade 2 [3]: 1 (3) no. (%) | Patients with Anemia, Grade ≥3 [3]: 6 (18) no. (%) | Patients with Arthralgia, Any grade [3]: 7 (21) no. (%) | Patients with Arthralgia, Grade 1 [3]: 3 (9) no. (%) | Patients with Arthralgia, Grade 2 [3]: 2 (6) no. (%) | Patients with Arthralgia, Grade ≥3 [3]: 2 (6) no. (%) | Patients with Aspartate aminotransferase increased, Any grade [3]: 2 (6) no. (%) | Patients with Aspartate aminotransferase increased, Grade 1 [3]: 2 (6) no. (%) | Patients with Aspartate aminotransferase increased, Grade 2 [3]: 0 no. (%) | Patients with Aspartate aminotransferase increased, Grade ≥3 [3]: 0 no. (%) | Patients with Asthenia, Any grade [3]: 10 (30) no. (%) | Patients with Asthenia, Grade 1 [3]: 5 (15) no. (%) | Patients with Asthenia, Grade 2 [3]: 3 (9) no. (%) | Patients with Asthenia, Grade ≥3 [3]: 2 (6) no. (%) | Patients with Back pain, Any grade [3]: 5 (15) no. (%) | Patients with Back pain, Grade 1 [3]: 1 (3) no. (%) | Patients with Back pain, Grade 2 [3]: 1 (3) no. (%) | Patients with Back pain, Grade ≥3 [3]: 3 (9) no. (%) | Patients with Blood creatinine increased, Any grade [3]: 4 (12) no. (%) | Patients with Blood creatinine increased, Grade 1 [3]: 3 (9) no. (%) | Patients with Blood creatinine increased, Grade 2 [3]: 1 (3) no. (%) | Patients with Blood creatinine increased, Grade ≥3 [3]: 0 no. (%) | Patients with Conjunctivitis, Any grade [3]: 4 (12) no. (%) | Patients with Conjunctivitis, Grade 1 [3]: 3 (9) no. (%) | Patients with Conjunctivitis, Grade 2 [3]: 1 (3) no. (%) | Patients with Conjunctivitis, Grade ≥3 [3]: 0 no. (%) | Patients with Constipation, Any grade [3]: 14 (42) no. (%) | Patients with Constipation, Grade 1 [3]: 8 (24) no. (%) | Patients with Constipation, Grade 2 [3]: 6 (18) no. (%) | Patients with Constipation, Grade ≥3 [3]: 0 no. (%) | Patients with Decreased appetite, Any grade [3]: 11 (33) no. (%) | Patients with Decreased appetite, Grade 1 [3]: 4 (12) no. (%) | Patients with Decreased appetite, Grade 2 [3]: 6 (18) no. (%) | Patients with Decreased appetite, Grade ≥3 [3]: 1 (3) no. (%) | Patients with Diarrhea, Any grade [3]: 14 (42) no. (%) | Patients with Diarrhea, Grade 1 [3]: 7 (21) no. (%) | Patients with Diarrhea, Grade 2 [3]: 6 (18) no. (%) | Patients with Diarrhea, Grade ≥3 [3]: 1 (3) no. (%) | Patients with Dry eye, Any grade [3]: 3 (9) no. (%) | Patients with Dry eye, Grade 1 [3]: 2 (6) no. (%) | Patients with Dry eye, Grade 2 [3]: 1 (3) no. (%) | Patients with Dry eye, Grade ≥3 [3]: 0 no. (%) | Patients with Dry mouth, Any grade [3]: 16 (48) no. (%) | Patients with Dry mouth, Grade 1 [3]: 15 (46) no. (%) | Patients with Dry mouth, Grade 2 [3]: 1 (3) no. (%) | Patients with Dry mouth, Grade ≥3 [3]: 0 no. (%) | Patients with Dry skin, Any grade [3]: 9 (27) no. (%) | Patients with Dry skin, Grade 1 [3]: 8 (24) no. (%) | Patients with Dry skin, Grade 2 [3]: 1 (3) no. (%) | Patients with Dry skin, Grade ≥3 [3]: 0 no. (%) | Patients with Dysgeusia, Any grade [3]: 10 (30) no. (%) | Patients with Dysgeusia, Grade 1 [3]: 7 (21) no. (%) | Patients with Dysgeusia, Grade 2 [3]: 3 (9) no. (%) | Patients with Dysgeusia, Grade ≥3 [3]: 0 no. (%) | Patients with Dyspepsia, Any grade [3]: 3 (9) no. (%) | Patients with Dyspepsia, Grade 1 [3]: 2 (6) no. (%) | Patients with Dyspepsia, Grade 2 [3]: 1 (3) no. (%) | Patients with Dyspepsia, Grade ≥3 [3]: 0 no. (%) | Patients with Dyspnea, Any grade [3]: 8 (24) no. (%) | Patients with Dyspnea, Grade 1 [3]: 3 (9) no. (%) | Patients with Dyspnea, Grade 2 [3]: 2 (6) no. (%) | Patients with Dyspnea, Grade ≥3 [3]: 3 (9) no. (%) | Patients with Fatigue, Any grade [3]: 6 (18) no. (%) | Patients with Fatigue, Grade 1 [3]: 4 (12) no. (%) | Patients with Fatigue, Grade 2 [3]: 2 (6) no. (%) | Patients with Fatigue, Grade ≥3 [3]: 0 no. (%) | Patients with Hand-foot syndrome, Any grade [3]: 2 (6) no. (%) | Patients with Hand-foot syndrome, Grade 1 [3]: 0 no. (%) | Patients with Hand-foot syndrome, Grade 2 [3]: 2 (6) no. (%) | Patients with Hand-foot syndrome, Grade ≥3 [3]: 0 no. (%) | Patients with Hematuria, Any grade [3]: 3 (9) no. (%) | Patients with Hematuria, Grade 1 [3]: 1 (3) no. (%) | Patients with Hematuria, Grade 2 [3]: 2 (6) no. (%)
